# Experimental data reported in publication PMC9102502, “The Influence of Selected Antipsychotic Drugs on Biochemical Aspects of Alzheimer’s Disease” (International Journal of Molecular Sciences, 2022).
# Read-outs that look alike come from different tables or passages of the source.
# Experiments:
# [1] = tested on: human erythrocytes; conditions: 80 μg/L, AAPH 50 mmol/L
# Method: The blood samples were centrifuged (3000 rpm, 10 min, 20 °C, Micro 22 R centrifuge, Hettich Zentrifugen, Tuttlingen, Germany) to separate erythrocytes from the plasma and washed three times with 0.9% saline (NaCl). […] The erythrocytes were suspended in 0.9% saline. As control of basal hemolysis, erythrocytes were incubated with 0.9% NaCl. For total hemolysis control erythrocytes were incubated with 2.0% v/v Triton X-100. Incubation with Triton X-100 and K4[Fe(CN)6] (at concentration 50 g/L) was performed to control methemoglobin (MetHb) formation. Moreover, an antioxidant control containing ascorbic acid (AA) at a concentration of 10 µg/mL was prepared, while AAPH at a concentration of 50 mmol/L was an oxidizing agent. Antipsychotics at concentrations equaling their maximum therapeutic plasma concentrations (TPCmax), as well as 5-fold higher (5 × TPCmax) and 5-fold lower than TPCmax (1/5 × TPCmax), and the oxidizing agent AAPH at a concentration of 50 mmol/L, were added to 2% RBC suspension. Controls and tested samples were incubated at 37 °C. […] The percentage of hemolysis was calculated with the following formula:Hemolysis (%) = (Asample/Atotal hemolysis) × 100%(1) where Asample—absorbance of the test sample; Atotal hemolysis—the absorbance of the reference sample with 2% Triton X solution, corresponding to complete hemolysis.
# [2] = tested on: HUVEC cells; test: WST-1 viability under AAPH-induced oxidative stress, HUVEC; type: cell-based, human; conditions: AAPH 17.5 mmol/L, relative to pure medium control
# Method: WST-1 assay (Takara, Takara Bio Europe, Saint-Germain-en-Laye, France) was used to assess the effects of antipsychotics on the growth of HUVEC and astrocytes. The experiments were conducted as described previously. HUVEC were seeded at a density of 7500 cells, and astrocytes at 5000 cells per well on 96-well microplates and cultured for 24 h followed by treatment with compounds at ½ × TPCmax and TPCmax or pure medium as a control (v = 100 μL) for another 24 h (37 °C, 5% CO2). Subsequently, the cells were washed with culture medium (100 μL) and WST-1 reagent diluted in medium (10 μL of reagent + 90 μL of medium) was added. The plates were incubated at 37 °C in 5% CO2 for another 90 min for HUVEC and 60 min for astrocytes. The absorbance was read at 450 nm using a microplate reader (iMARK, Bio-Rad, Hercules, CA, USA). The cells viability was expressed as a percentage of the control samples which constituted 100% viability.
# Moreover, the WST-1 assay was used to evaluate potential protective effects of antipsychotics on the growth of HUVEC and astrocytes under conditions of AAPH-induced oxidative stress. The experimental conditions were the same as in viability studies. AA at the final concentration of 10 μg/mL was used as an antioxidant control. After reaching the confluence, the antipsychotics were added at concentrations equaling ½ × TPCmax and TPCmax. After 1 h incubation under standard conditions, 50 μL AAPH was added to the wells containing tested compounds or AA. The AAPH concentration was chosen on the basis of preliminary experiments—17.5 mmol/L in HUVEC experiments, and 15.0 mmol/L in the case of astrocytes.
smiles,measurement,setting,value
"OCCOCCN1CCN(C2=Nc3ccccc3Sc3ccccc32)CC1 [Quetiapine, quetiapine]",RBCs hemolysis with AAPH,"[1]; 5 h, AAPH control 53.4%",23.9%
same,RBCs hemolysis with AAPH,"[1]; 24 h, AAPH control 45.9%",51.9%
same,viability of HUVEC under AAPH,"[2]; TPC (bromperidol 25 μg/L, quetiapine 400 μg/L)",74.9%
same,viability of HUVEC under AAPH,"[2]; ½ × TPC (bromperidol 12.5 μg/L, quetiapine 200 μg/L)",66.8%
